In ChEMBL document CHEMBL1201862, “PubChem BioAssay data set” (2004):
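Compound exposure: 48 hours, 5 concentrations, 96-well plates. The concentration for 50% growth inhibition is given as GI50.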 The source made the active and inactive calls. Rule as the data show it: active = GI50 up to about 1.1 µM and inactive = higher.

What was measured:
Assay in all cases: NCI anticancer screen, dose series, 48 h
786-0 = tested on: 786-0
A549 = tested on: A549
ACHN = tested on: ACHN
BT-549 = tested on: BT-549
CAKI-1 = tested on: CAKI-1
CCRF-CEM = tested on: CCRF-CEM
COLO 205 = tested on: COLO 205
DU-145 = tested on: DU-145
EKVX = tested on: EKVX
HCC 2998 = tested on: HCC 2998
HCT-116 = tested on: HCT-116
HCT-15 = tested on: HCT-15
HL-60 = tested on: HL-60
HOP-62 = tested on: HOP-62
HOP-92 = tested on: HOP-92
HT-29 = tested on: HT-29
Hs-578T = tested on: Hs-578T
IGROV-1 = tested on: IGROV-1
K562 = tested on: K562
KM12 = tested on: KM12
LOX IMVI = tested on: LOX IMVI
M14 = tested on: M14
MCF7 = tested on: MCF7
MDA-MB-231 = tested on: MDA-MB-231
MDA-MB-435 = tested on: MDA-MB-435
MOLT-4 = tested on: MOLT-4
NCI-H226 = tested on: NCI-H226
NCI-H23 = tested on: NCI-H23
NCI-H460 = tested on: NCI-H460
NCI-H522 = tested on: NCI-H522
NCI/ADR-RES = tested on: NCI/ADR-RES
OVCAR-3 = tested on: OVCAR-3
OVCAR-4 = tested on: OVCAR-4
OVCAR-8 = tested on: OVCAR-8
PC-3 = tested on: PC-3
RXF 393 = tested on: RXF 393
SF-268 = tested on: SF-268
SF-295 = tested on: SF-295
SF-539 = tested on: SF-539
SK-MEL-28 = tested on: SK-MEL-28
SK-MEL-5 = tested on: SK-MEL-5
SK-OV-3 = tested on: SK-OV-3
SN12C = tested on: SN12C
SNB-19 = tested on: SNB-19
SNB-75 = tested on: SNB-75
SR = tested on: SR
SW-620 = tested on: SW-620
T47D = tested on: T47D
TK-10 = tested on: TK-10
U-251 = tested on: U-251
UACC-257 = tested on: UACC-257
UACC-62 = tested on: UACC-62
UO-31 = tested on: UO-31

How did the GI50 (786-0) turn out when `O=C1OCC2=Nc3cccc4cccc(c34)N12` was run?
The GI50 was > 100 µM (inactive).

What about the GI50 (A549) of the same compound?
The GI50 was > 100 µM (inactive).

What about the GI50 (ACHN) of the same compound?
The GI50 was > 100 µM (inactive).

What about the GI50 (BT-549) of the same compound?
The GI50 was > 100 µM (inactive).

And the GI50 (CAKI-1)?
The GI50 was > 100 µM (inactive).

What about the GI50 (CCRF-CEM) of the same compound?
Its GI50 is 49.8 µM (inactive).

What about the GI50 (COLO 205) of the same compound?
The GI50 was > 100 µM (inactive).

And the GI50 (DU-145)?
The GI50 was > 100 µM (inactive).

And the GI50 (EKVX)?
The GI50 was 57.1 µM (inactive).

And the GI50 (HCC 2998)?
The GI50 was > 100 µM (inactive).

What about the GI50 (HCT-116) of the same compound?
Its GI50 is > 100 µM (inactive).

And the GI50 (HCT-15)?
The GI50 was greater than 100 µM.

What about the GI50 (HL-60) of the same compound?
Its GI50 is > 100 µM (inactive).

And the GI50 (HOP-62)?
The GI50 was > 100 µM (inactive).

And the GI50 (HOP-92)?
The GI50 was < 0.01 µM (active).

And the GI50 (HT-29)?
The GI50 was > 100 µM (inactive).

And the GI50 (Hs-578T)?
Its GI50 is > 100 µM (inactive).

And the GI50 (IGROV-1)?
The GI50 was > 100 µM (inactive).

And the GI50 (K562)?
The GI50 was > 100 µM (inactive).

What about the GI50 (KM12) of the same compound?
Its GI50 is > 100 µM (inactive).

What about the GI50 (LOX IMVI) of the same compound?
The GI50 was > 100 µM (inactive).

And the GI50 (M14)?
The GI50 was > 100 µM (inactive).

What about the GI50 (MCF7) of the same compound?
Its GI50 is > 100 µM (inactive).

What about the GI50 (MDA-MB-231) of the same compound?
Its GI50 is > 100 µM (inactive).

What about the GI50 (MDA-MB-435) of the same compound?
Its GI50 is > 100 µM (inactive).

And the GI50 (MOLT-4)?
Its GI50 is > 100 µM (inactive).

What about the GI50 (NCI-H226) of the same compound?
The GI50 was > 100 µM (inactive).

What about the GI50 (NCI-H23) of the same compound?
Its GI50 is > 100 µM (inactive).

And the GI50 (NCI-H460)?
The GI50 was > 100 µM (inactive).

And the GI50 (NCI-H522)?
Its GI50 is 88.9 µM (inactive).

What about the GI50 (NCI/ADR-RES) of the same compound?
The GI50 was > 100 µM (inactive).

What about the GI50 (OVCAR-3) of the same compound?
The GI50 was > 100 µM (inactive).

What about the GI50 (OVCAR-4) of the same compound?
Its GI50 is > 100 µM (inactive).

And the GI50 (OVCAR-8)?
Its GI50 is > 100 µM (inactive).

What about the GI50 (PC-3) of the same compound?
Its GI50 is > 100 µM (inactive).

What about the GI50 (RXF 393) of the same compound?
Its GI50 is > 100 µM (inactive).

What about the GI50 (SF-268) of the same compound?
The GI50 was > 100 µM (inactive).

And the GI50 (SF-295)?
Its GI50 is > 100 µM (inactive).

And the GI50 (SF-539)?
Its GI50 is > 100 µM (inactive).

What about the GI50 (SK-MEL-28) of the same compound?
Its GI50 is > 100 µM (inactive).

What about the GI50 (SK-MEL-5) of the same compound?
The GI50 was > 100 µM (inactive).

And the GI50 (SK-OV-3)?
Its GI50 is > 100 µM (inactive).

And the GI50 (SN12C)?
The GI50 was > 100 µM (inactive).

What about the GI50 (SNB-19) of the same compound?
The GI50 was > 100 µM (inactive).

And the GI50 (SNB-75)?
Its GI50 is > 100 µM (inactive).

And the GI50 (SR)?
The GI50 was > 100 µM (inactive).

And the GI50 (SW-620)?
Its GI50 is > 100 µM (inactive).

And the GI50 (T47D)?
Its GI50 is > 100 µM (inactive).

And the GI50 (TK-10)?
Its GI50 is > 100 µM (inactive).

And the GI50 (U-251)?
Its GI50 is > 100 µM (inactive).

And the GI50 (UACC-257)?
Its GI50 is > 100 µM (inactive).

What about the GI50 (UACC-62) of the same compound?
The GI50 was > 100 µM (inactive).

What about the GI50 (UO-31) of the same compound?
Its GI50 is > 100 µM (inactive).
